Source: patent publication US9994848B2, “Pharmaceutical composition for preventing and teating endocrine disrupting chemicals-induced diseases and treating method using the same” (priority 2016, dated 2018)

Columns and labels:
[1] = test system: 3T3-L1 adipocytes; assay: Oil Red O staining of 3T3-L1 adipocytes (adipocyte differentiation, total lipid content); format: cell-based, mouse; conditions: for oil red O staining (adipocyte differentiation): PCBs 20 μM during DMI treatment, 3T3-L1 adipocytes
Procedure: (§1) 3T3-L1 mouse embryo fibroblasts, purchased from American Type Culture Collection (Manassas, Va., USA), were maintained in standard Dulbecco's modified Eagle's medium (DMEM; Gibco-BRL, Gaithersburg, Md., USA) supplemented with 10% fetal calf serum (FCS; Gibco-BRL, Gaithersburg, Md., USA) and 1% penicillin/streptomycin at 37° C. in a humidified 5% CO2 atmosphere. After confluence, 3T3-L1 cells were induced to differentiate using DMI induction medium (DMEM containing 10% FBS, 0.5 mM 3-isobutyl-1-methylxanthine, 0.5 μM dexamethasone, and 1 μg/ml insulin) for 2 days, followed by DMII (DMEM containing 10% FBS and 1 μg/ml insulin) for 2 days. The medium was subsequently replaced with fresh culture medium (DMEM with 10% FBS) every 2 days for 4 days. To define the effects of PCBs on adipocyte differentiation, we incubated preadipocytes with PCBs (PCB-77, PCB-118, PCB-138 or PCB-153) at equivalent concentrations (20 μM) during DMI treatment.
(§2) For the siRNA-mediated down-regulation of Fsp27, Fsp27-specific siRNA and negative control siRNA were purchased from Bioneer (Daejeon, Korea) and used at a concentration of 20 nM. 3T3-L1 mouse embryo fibroblasts were transfected with either the siRNA molecule specific for Fsp27 or a negative control siRNA using Lipofectamine® RNAiMAX per the manufacturer's instructions.
As previously described (Kim et al. 2015), cells were washed twice in phosphate buffered saline (PBS) and fixed for 1 h with 10% (w/v) formaldehyde in PBS. After two washes in 60% isopropyl alcohol, the cells were stained for 30 min in freshly diluted Oil Red O solution. Then, the stain was removed, and the cells were washed 4 times in water. After adding 100% 2-propanol at 500 nm, the absorbance of the eluted Oil Red O was measured in a spectrophotometer.

[2] = test system: C57BL/6 mice; assay: PCB exposure of C57BL/6 mice: adipose mass, adipocyte size, body and liver weight; format: in vivo, mouse; conditions: 37.5 mg/kg ip, three injections, 6-week study
Procedure: (§3) Adult male C57BL/6 mice (8-week-old, 22-25 g) were purchased from SamTako Bio-Korea (Osan, Korea). The animals were maintained in a temperature-controlled room (22° C.) on a 12:12-h light-dark cycle. All procedures were approved by the Committee on Animal Investigations at Dong-A University. 12-week-old mice were administered vehicle (corn oil), PCB-118 or PCB-138 (37.5 mg/kg) by intraperitoneal (ip) injection for a total of three injections (2, 3 and 5 weeks) during the 6-week study duration. Mice were randomly divided into 3 groups of 10 animals each.
Epididymal white adipose tissues (eWAT) were fixed in 10% neutral buffered formalin and embedded in paraffin. Four-micrometer sections were prepared and stained with hematoxylin and eosin. The morphology of the […] was photographed using an Aperio ScanScope (Aperio Technologies, Vista, Calif., USA).

[3] = test system: 3T3-L1 adipocytes; assay: Lipid droplet (LD) morphology and size in 3T3-L1 adipocytes (phase contrast, confocal microscopy); format: cell-based, mouse; conditions: for large LD formation: 3T3-L1 adipocytes treated with PCBs
Procedure: as §1, §2

[4] = test system: Fsp27 and perilipin; assay: Western blot of LD-associated proteins in 3T3-L1 adipocytes; format: cell-based, mouse; conditions: for protein expression levels of Fsp27 and perilipin: in vitro
Procedure: as §1
(§4) Cells and tissues were washed with ice-cold PBS, resuspended in 100 μL ice-cold RIPA buffer and incubated at 4° C. for 30 min. Lysates were centrifuged at 13,000 rpm for 30 min at 4° C. Equal amounts of proteins were subjected to 7.5-15% sodium dodecyl sulfate polyacrylamide gel electrophoresis. The proteins were transferred to a nitrocellulose membrane and reacted with each antibody. Immunostaining with antibodies was performed using the Super Signal West Pico (Thermo Scientific, Hudson, N.H., USA) enhanced chemiluminescence substrate and detected with LAS-3000 Plus (Fuji Photo Film, Tokyo, Japan). Quantification and normalization to actin or GAPDH control bands were performed using ImageJ 1.48q (NIH imaging software, Bethesda, Md., USA).

[5] = test system: aP2, PPAR and C/EBP; assay: mRNA and protein levels of adipocyte differentiation markers in vitro; format: cell-based, mouse
Procedure: as §1, with “To define the effects of PCBs on adipocyte differentiation, we incubated preadipocytes with PCBs (PCB-77, PCB-118, PCB-138 or PCB-153) at equivalent concentrations (20 μM) during DMI treatment.” left out
as §4, with “Lysates were centrifuged at 13,000 rpm for 30 min at 4° C. Equal amounts of proteins were subjected to 7.5-15% sodium dodecyl sulfate polyacrylamide gel electrophoresis. The proteins were transferred to a nitrocellulose membrane and reacted with each antibody.” left out

[6] = test system: C57BL/6 mice; assay: Blood glucose, plasma insulin, GTT and ITT in PCB-administered mice; format: in vivo, mouse; conditions: for blood glucose level / plasma insulin level: 37.5 mg/kg ip; for amount of hyperglycemia in GTT: glucose 1 mg/g ip after 16 h fast; for efficiency of insulin in ITT: insulin 0.75 U/kg ip after 16 h fast
Procedure: as §3
As previously described, intraperitoneal glucose tolerance tests (GTT) and insulin tolerance tests (ITT) were performed after the mice were fasted for 16 h. Plasma glucose concentrations were measured in tail blood using a GlucoDr Blood Glucose Test Strip (Hasuco, Seoul, South Korea) prior to and 30, 60, 90 and 120 minutes after intraperitoneally injecting a bolus of glucose (1 mg/g) for the GTT, and at the same time-points after intraperitoneally injecting 0.75 U/kg body weight insulin for the ITT.

[7] = test system: Fsp27 and perilipin; assay: Western blot of LD-associated proteins in PCB-administered mice; set-up: species or system mouse; conditions: in vivo
Procedure: as §3, §4

[8] = test system: p-Akt (Ser473) and p-PI3K p85 (Tyr458); assay: Western blot of insulin-induced p-Akt and p-PI3K p85 in 3T3-L1 adipocytes; format: cell-based, mouse; conditions: for insulin-induced upregulation of p-Akt (Ser473) and p-PI3K p85 (Tyr458): 3T3-L1 adipocytes
Procedure: as §1, §4

[9] = test system: IRS1; assay: IRS1 protein and mRNA level in 3T3-L1 adipocytes; format: cell-based, mouse; conditions: correlated with reversal of Fsp27 upregulation, Western blot
Procedure: as §1, with “To define the effects of PCBs on adipocyte differentiation, we incubated preadipocytes with PCBs (PCB-77, PCB-118, PCB-138 or PCB-153) at equivalent concentrations (20 μM) during DMI treatment.” left out
as §4, with “Lysates were centrifuged at 13,000 rpm for 30 min at 4° C. Equal amounts of proteins were subjected to 7.5-15% sodium dodecyl sulfate polyacrylamide gel electrophoresis. The proteins were transferred to a nitrocellulose membrane and reacted with each antibody.” left out

[10] = test system: adipocytes; assay: Accumulation of PCBs in adipocytes; format: cell-based

Clc1ccc(-c2ccc(Cl)c(Cl)c2)cc1Cl [PCB-77, 3,3′,4,4′-tetrachlorobiphenyl]
effect on the adipocyte differentiation ([1]; compared to PCB-118 and PCB-138, 20 μM): meager effect

Clc1cc(Cl)c(-c2ccc(Cl)c(Cl)c2Cl)cc1Cl [PCB-138, 2,2′,3,4,4′,5′-Hexachlorobiphenyl]
adipocyte size (eWAT) [2]: increased | adipose mass [2]: increased | body weight [2]: without affecting | liver weight [2]: without affecting | large LD formation [3]: promote large LD formation | protein expression levels of Fsp27 and perilipin ([4]; 3T3-L1 adipocytes): increased | oil red O staining (adipocyte differentiation) [1]: significantly increased | mRNA and protein levels of aP2, PPAR and C/EBP (markers of adipocyte differentiation) [5]: increased | blood glucose level [6]: increased | plasma insulin level [6]: increased | amount of hyperglycemia in GTT [6]: increased | efficiency of insulin in ITT [6]: reduced | protein expression levels of Fsp27 and perilipin [7]: increased | insulin-induced upregulation of p-Akt (Ser473) and p-PI3K p85 (Tyr458) [8]: impaired

Clc1ccc(-c2cc(Cl)c(Cl)cc2Cl)cc1Cl [PCB-118, 2,3′,4,4′,5-pentachlorobiphenyl]
adipocyte size (eWAT) [2]: increased | adipose mass [2]: increased | body weight [2]: without affecting | liver weight [2]: without affecting | large LD formation [3]: promote large LD formation | protein expression levels of Fsp27 and perilipin ([4]; 3T3-L1 adipocytes): increased | oil red O staining (adipocyte differentiation) [1]: significantly increased | mRNA and protein levels of aP2, PPAR and C/EBP (markers of adipocyte differentiation) [5]: increased | blood glucose level [6]: increased | plasma insulin level [6]: increased | amount of hyperglycemia in GTT [6]: increased | efficiency of insulin in ITT [6]: reduced | protein expression levels of Fsp27 and perilipin [7]: increased | insulin-induced upregulation of p-Akt (Ser473) and p-PI3K p85 (Tyr458) [8]: impaired

CN(C)C(=N)N=C(N)N [metformin, reference compound]
IRS1 downregulation in adipocytes exposed to PCBs [9]: reversal | PCB-induced LD enlargement ([3]; PCB-treated 3T3-L1 adipocytes, phase contrast microscopy): reversed | expression level of Fsp27 ([4]; 3T3-L1 adipocytes, Western blot): reduced | PCB-induced upregulation of Fsp27 expression ([4]; PCB-treated 3T3-L1 adipocytes, Western blot): reversed | accumulation of PCB-118 and PCB-138 in adipocytes [10]: reverted | impairment by PCBs of the insulin-induced upregulation of p-Akt (Ser473) and p-PI3K p85 (Tyr458) ([8]; PCB-treated 3T3-L1 adipocytes): reversed
